From patent US7371755B1 (Biota Scientific Management Pty Ltd., priority 1999, dated 2008)
≈ marks a conversion by molar mass, not a printed value. Like-named read-outs stand apart in the source and are kept apart here.

Columns and labels:
HRV type 2 = assay: Inhibition of viral cytopathic effect (CPE), HRV type 2 in KB cells; assay type: cell-based, human rhinovirus; conditions: for EC50: Enterovirus, read-out: Activity on Rhinovirus Type 2 EC50
Method: (§5) The ability of compounds to suppress virus replication and thereby protect cells from HRV-induced CPE was measured using human embryo lung (MRC-5) and human epidermoid carcinoma of the mouth (KB) cells infected with HRV type 1A and HRV type 2, respectively. […] Test compounds were dissolved in 100% anhydrous dimethyl sulfoxide and serially diluted in tissue culture medium. The antiviral potency of the test compounds was assessed by exposing replicate tissue culture wells to a selected dilution series of between 6 and 7 compound concentrations in the presence of sufficient test virus to invoke significant CPE over the course of the assay. Control cells were also exposed to identical concentrations of compounds in the absence of virus or were infected with virus under the same conditions but in the absence of compounds. Compounds of established anti-HRV efficacy (enviroxime, ribavirin and pirodavir) were assayed by identical procedures in parallel to the test compounds. Tissue culture media were identically supplemented to maintain cell viability and support viral growth while suppressing bacterial growth over the period of the assay (supplements: 2% fetal calf serum, 0.01% sodium bicarbonate, 50 g/ml gentamicin, 5 M magnesium chloride, 10 mM of zinc chloride). […] At this time all infected cultures were examined by eye using a light microscope and CPE scored on a scale of 0 (no CPE) to 4 (maximum CPE). Uninfected treated cultures were similarly scored for cytotoxic effects (eg. cell enlargement, granularity, rounding, detachment). […] As an alternative to a CC50 value, cytoxicity in some cases was expressed as the Minimum Toxic Concentration (MTC).
(§6) Vital dye staining to measure cell viability was also used to quantify CPE and cytotoxic effects. […] After the assay had been scored by eye with the aid of a microscope, 100 1 of neutral red (NR) solution (0.34% NR in phosphate buffered saline (PBS)) was added to each well and mixed gently. The assays were returned to the 37° C. incubator for 2 hours to facilitate uptake of the NR by viable cells. The medium/NR mixture was then aspirated from the surface of the cells, which were washed twice with PBS. 0.25 ml of absolute ethanol containing Sorensen's citrate buffer I, was added with gentle mixing and the assays incubated at room temperature in the dark for 30 minutes to dissolve the NR. NR staining of viable cells was then quantified spectrophotometrically by measuring the colour density of the NR solution using a BioTek EL-309 microplate reader at dual wavelengths of 540 and 405 nm. The differences in the two readings were automatically determined to eliminate background errors. EC50 and CC50 values were determined by regression analysis matching compound concentration to NR staining. The XTT method involved use of a solution of XTT (1 mg/ml in culture media) which was added to each well and the plates incubated at 37° C. for 4 hours. XTT metabolism was measured spectrophotometrically using a similar method to that described above except that the dual wavelengths were 450 nm and 650 nm. EC50 and CC50 values were determined by regression analysis using a similar method to that described above.

[1] = Cytotoxicity in uninfected treated cultures (HRV type 2 assay); conditions: human
Method: (§1) The ability of compounds to suppress virus replication and thereby protect cells from HRV-induced CPE was measured using human embryo lung (MRC-5) and human epidermoid carcinoma of the mouth (KB) cells infected with HRV type 1A and HRV type 2, respectively. Cells grown in 96 well tissue culture plates using conventional mammalian tissue culture medium (such as minimum essential medium) supplemented with fetal calf serum were used in an assay essentially similar to that described by Sidwell and Huffman (Applied Microbiology, 22, 797-801 (1971)). Test compounds were dissolved in 100% anhydrous dimethyl sulfoxide and serially diluted in tissue culture medium. The antiviral potency of the test compounds was assessed by exposing replicate tissue culture wells to a selected dilution series of between 6 and 7 compound concentrations in the presence of sufficient test virus to invoke significant CPE over the course of the assay. Control cells were also exposed to identical concentrations of compounds in the absence of virus or were infected with virus under the same conditions but in the absence of compounds. Compounds of established anti-HRV efficacy (enviroxime, ribavirin and pirodavir) were assayed by identical procedures in parallel to the test compounds. Tissue culture media were identically supplemented to maintain cell viability and support viral growth while suppressing bacterial growth over the period of the assay (supplements: 2% fetal calf serum, 0.01% sodium bicarbonate, […] gentamicin, […] magnesium chloride, […] of zinc chloride). […] At this time all infected cultures were examined by eye using a light microscope and CPE scored on a scale of 0 (no CPE) to 4 (maximum CPE). Uninfected treated cultures were similarly scored for cytotoxic effects (eg. cell enlargement, granularity, rounding, detachment). […] As an alternative to a CC50 value, cytoxicity in some cases was expressed as the Minimum Toxic Concentration (MTC).
(§2) Vital dye staining to measure cell viability was also used to quantify CPE and cytotoxic effects. The vital dye technique was based on either neutral red uptake (Modification of the method of McManus, Appl. Environment. Microbiol., 31, 35-38, 1976) or XXT metabolism. After the assay had been scored by eye with the aid of a microscope, 100 1 of neutral red (NR) solution (0.34% NR in phosphate buffered saline (PBS)) was added to each well and mixed gently. The assays were returned to the 37° C. incubator for 2 hours to facilitate uptake of the NR by viable cells. The medium/NR mixture was then aspirated from the surface of the cells, which were washed twice with PBS. 0.25 ml of absolute ethanol containing Sorensen's citrate buffer I, was added with gentle mixing and the assays incubated at room temperature in the dark for 30 minutes to dissolve the NR. NR staining of viable cells was then quantified spectrophotometrically by measuring the colour density of the NR solution using a BioTek EL-309 microplate reader at dual wavelengths of 540 and 405 nm. The differences in the two readings were automatically determined to eliminate background errors. EC50 and CC50 values were determined by regression analysis matching compound concentration to NR staining. The XTT method involved use of a solution of XTT (1 mg/ml in culture media) which was added to each well and the plates incubated at 37° C. for 4 hours. XTT metabolism was measured spectrophotometrically using a similar method to that described above except that the dual wavelengths were 450 nm and 650 nm. EC50 and CC50 values were determined by regression analysis using a similar method to that described above.
(§3) Selectivity indices (SI) are the CC50 or MTC divided by the EC50.

HRV type 1A = assay: Inhibition of viral cytopathic effect (CPE), HRV type 1A in MRC-5 cells; assay type: cell-based, human rhinovirus; conditions: for EC50: Enterovirus
Method: as §5, §6

[2] = Cytotoxicity in uninfected treated cultures (HRV type 1A assay); assay type: cell-based, human; conditions: human
Method: as §5, §6

[3] = tested on: human epidermoid carcinoma of the mouth (KB) cells; assay: Cytotoxicity in uninfected treated cultures (HRV type 2 assay)
Method: as §1, §2, §3

[4] = tested on: human embryo lung (MRC-5) cells; assay: Cytotoxicity in uninfected treated cultures (HRV type 1A assay); assay type: cell-based
Method: as §5, §6

Enterovirus 70 = assay: Activity against Enterovirus 70 in mammalian cell culture assay; assay type: cell-based
Method: (§4) Activity against Enteroviruses in Mammalian Cell Culture Assays Compounds 50 and 56 of the Invention were Tested Against Other Picornaviruses Using Similar cell based assays to those described in example 30 above and the results are shown in Table 6 below: […]

mammalian cell culture [5] = assay type: cell-based
Method: as §4

Coxsackie A21 = assay: Activity against Coxsackie A21 in mammalian cell culture assay; assay type: cell-based
Method: as §4

Echo 21 = assay: Activity against Echo 21 in mammalian cell culture assay; assay type: cell-based
Method: as §4

mammalian cell culture [6] = assay: in vitro; assay type: cell-based
Method: as §4

in vitro = assay type: cell-based
Method: as §4

[7] = HRV type 2, KB cells, concentration yielding 50% antiviral efficacy
[8] = MRC5, HRV type 1A, MRC-5 cells, concentration yielding 50% antiviral efficacy, read-out: Activity on Rhinovirus Type 1A EC50
[9] = HRV type 1A, MRC-5 cells, concentration yielding 50% antiviral efficacy
[10] = MRC5, read-out: Activity on Rhinovirus Type 1A EC50
[11] = Enterovirus D; read-out: Activity on Enterovirus 70 EC50

SMILES | Activity on Rhinovirus Type 2 EC50 (HRV type 2; [7]) | CC50 [2] | Activity on Rhinovirus Type 2 CC50 [3] | Activity on Rhinovirus Type 1A EC50 (HRV type 1A; [9]) | Activity on Rhinovirus Type 1A CC50 [4] | other results
COCc1cc(CCCOc2c(C)cc(-c3ccccc3)cc2C)on1 [Compound 6, 3-(methoxymethyl)-5-[3-[2,6-dimethyl-4-phenylphenoxy]-propyl]-isoxazole] |  | > 50 µg/mL |  |  |  | EC50 (HRV type 2; [7]): < 0.005 µg/mL; CC50 ([1]; KB cells, uninfected): > 5 µg/mL; EC50 (HRV type 1A; [8]): 0.16 µg/mL (≈ 0.455 µM)
Cc1cc(-c2ccccc2)cc(C)c1OCCCc1cc(COCCOCCOCCO)no1 [Compound 8] | 0.001 µg/mL |  | 5 µg/mL | 0.59 µg/mL | 22.7 µg/mL | 
Cc1cc(-c2ccccc2)cc(C)c1OCCCc1cc(COCCOCCOCCOCCOCCOCCO)no1 [Compound 10] | 0.1 µg/mL |  | 5 µg/mL | >50 µg/mL | 19 µg/mL | 
CC(=O)NCCOCCOCc1cc(CCCOc2c(C)cc(-c3ccccc3)cc2C)on1 [Compound 19] |  |  |  |  |  | EC50 (HRV type 2; KB): < 0.005 µg/mL; CC50 [1]: 2 µg/mL (≈ 4.29 µM); EC50 (HRV type 1A; [10]): 0.87 µg/mL (≈ 1.86 µM); CC50 ([2]; MRC-5 cells, no virus, CC50 or, in some cases, MTC, read-out: Activity on Rhinovirus Type 1A CC50): 5.79 µg/mL (≈ 12.4 µM)
Cc1cc(-c2noc(C(F)(F)F)n2)cc(C)c1OCCCc1cc(COCCOCCOCCO)no1 [Compound 24] | 0.04 µg/mL |  | > 1 µg/mL | 0.21 µg/mL | 5.28 µg/mL | 
Cc1cc(-c2ccccc2)cc(C)c1OCCCc1cc(COCCOCCOCCOCc2cc(CCCOc3c(C)cc(-c4ccccc4)cc3C)on2)no1 [Compound 32, 1,8-bis-[5-[3-[2,6-dimethyl-4-phenylphenoxy]-propyl]-isoxazolyl-3-methyloxy]-3,6-dioxaoctane] | 0.1 µg/mL |  | > 5 µg/mL | 0.32 µg/mL | > 50 µg/mL | 
Cc1cc(-c2ccccc2)cc(C)c1OCCCc1cc(COCCOCCOCCOCCOCCOCCOCc2cc(CCCOc3c(C)cc(-c4ccccc4)cc3C)on2)no1 [Compound 34] | 0.09 µg/mL |  | > 0.5 µg/mL | >50 µg/mL | 10.9 µg/mL | 
Cc1cc(-c2ccccc2)cc(C)c1OCCCc1cc(COCCOCCOCCOCCNC(=O)Nc2ccc(Cc3ccc(NC(=O)NCCOCCOCCOCCOCc4cc(CCCOc5c(C)cc(-c6ccccc6)cc5C)on4)cc3)cc2)no1 [Compound 48] | 0.6 µg/mL |  | > 5 µg/mL | 3.85 µg/mL | 30.6 µg/mL | 
CC(C)S(=O)(=O)n1c(N)nc2ccc(/C(=N/O)c3ccccc3)cc21 [Enviroxime] |  | 0.49 µg/mL (≈ 1.37 µM) |  |  |  | EC50 (HRV type 1A; [8]): 0.006 µg/mL (≈ 0.0167 µM); EC50 (Enterovirus 70; [11]): 0.21 µg/mL (≈ 0.586 µM); EC50 (Coxsackie A21): 0.39 µg/mL (≈ 1.09 µM); EC50 (Echo 21): 0.03 µg/mL (≈ 0.0837 µM); CC50 (in vitro): 0.45 µg/mL (≈ 1.26 µM)
CCOC(=O)c1ccc(OCCC2CCN(c3ccc(C)nn3)CC2)cc1 [Pirodavir, reference compound] |  | > 10 µg/mL |  |  |  | EC50 (HRV type 2; [7]): 0.003 µg/mL (≈ 0.00812 µM); EC50 (HRV type 1A; [8]): 0.02 µg/mL (≈ 0.0541 µM)
Cc1cc(CCCOc2c(C)cc(-c3noc(C(F)(F)F)n3)cc2C)on1 [Pleconaril, reference compound] |  | 10 µg/mL (≈ 26.2 µM) |  |  |  | EC50 (HRV type 2; KB): 0.05 µg/mL (≈ 0.131 µM); CC50 ([1]; KB cells, uninfected): 0.5 µg/mL (≈ 1.31 µM); EC50 (HRV type 1A; [10]): 0.02 µg/mL (≈ 0.0524 µM); EC50 (Enterovirus 70; Enterovirus D, read-out: Activity on Enterovirus 70 EC50): 0.28 µg/mL (≈ 0.734 µM); EC50 (Coxsackie A21): 0.0033 µg/mL (≈ 0.00865 µM); EC50 (Echo 21): > 0.00016 µg/mL
NC(=O)c1ncn([C@@H]2O[C@H](CO)[C@@H](O)[C@H]2O)n1 [Ribavirin] |  | 98.3 µg/mL (≈ 403 µM) |  |  |  | EC50 (Enterovirus 70; [11]): > 100 µg/mL; EC50 (Coxsackie A21): > 100 µg/mL; EC50 (Echo 21): 3 µg/mL (≈ 12.3 µM)

Second part, led by results:

Activity on Rhinovirus Type 2 EC50 (HRV type 2; [7]) | SMILES | CC50 [2] | Activity on Rhinovirus Type 2 CC50 [3] | Activity on Rhinovirus Type 1A EC50 (HRV type 1A; [9]) | Activity on Rhinovirus Type 1A CC50 [4] | other results
0.02 µg/mL | Cc1cc(-c2noc(C(F)(F)F)n2)cc(C)c1OCCCc1cc(COCCOCCOCc2cc(CCCOc3c(C)cc(-c4noc(C(F)(F)F)n4)cc3C)on2)no1 [Compound 50, 1,5-bis-[5-[3-[2,6-dimethyl-4-(5-trifluoromethyl-1,2,4-oxadiazolyl)phenoxy]-propyl]-isoxazolyl-3-methyloxy]-3-oxapentane] |  | 2 µg/mL | 0.06 µg/mL | 10 µg/mL | Activity on Enterovirus 70 EC50 (Enterovirus 70; Enterovirus 70): >50 µg/mL; Activity on Coxsackie A21 CC50 (mammalian cell culture [5]): > 50 µg/mL; Activity on Enterovirus 70 CC50 (mammalian cell culture [5]): > 50 µg/mL; Activity on Coxsackie A21 EC50 (Coxsackie A21): 0.35 µg/mL; Activity on Echo 21 EC50 (Echo 21): 0.0006 µg/mL; Activity on Echo 21 CC50 (mammalian cell culture [6]): 46.3 µg/mL
0.09 µg/mL | Cc1cc(-c2noc(C(F)(F)F)n2)cc(C)c1OCCCc1cc(COCCOCCOCCOCCOCc2ccc(COCCOCCOCCOCCOCc3cc(CCCOc4c(C)cc(-c5noc(C(F)(F)F)n5)cc4C)on3)cc2)no1 [Compound 56] |  | 2 µg/mL | 1.8 µg/mL | 10 µg/mL | Activity on Enterovirus 70 EC50 (Enterovirus 70; Enterovirus 70): 2.88 µg/mL; Activity on Coxsackie A21 CC50 (mammalian cell culture [5]): 11.1 µg/mL; Activity on Enterovirus 70 CC50 (mammalian cell culture [5]): > 50 µg/mL; Activity on Coxsackie A21 EC50 (Coxsackie A21): 0.36 µg/mL; Activity on Echo 21 EC50 (Echo 21): 0.0026 µg/mL; Activity on Echo 21 CC50 (mammalian cell culture [6]): 7.93 µg/mL
